Test results from patent publication US6867320B2, “Substituted phenylalkanoic acid derivatives and use thereof” (Asahi Kasei Pharma Corporation, priority 2002, dated 2005).

Tested on: PGE2 production from IL-1β-stimulated MG-63 cells
Assay: Suppressing action on PGE2 production from IL-1β-stimulated MG-63 cells
Type: cell-based
Details: Homo sapiens, IL-1β 1 ng/ml, 18 hours, read-out: PGE2 production suppression ratio
From the text: 1. Suppressing Action on PGE2 Production from IL-1β-Stimulated MG-63 Cells (1) Method for Measurement
An action of suppressing PGE2 production caused by interleukin (IL) 1β as an inflammatory stimulant was studied by the following method. Cells of MG-63, which is a human osteosarcoma cell line (purchased from Dainippon Pharmaceutical), were suspended in EMEM medium (GIBCO) containing 10% fetal bovine serum (BioFluid), and then inoculated to each well of 96-well culture plate at a density of 2×10^4 cells/well and cultured overnight. The medium was changed to EMEM medium containing 0.5% fetal bovine serum, and then a test compound was added with each well. Human interleukin-1β (ENDOGEN) was further added as an inflammatory stimulant at a final concentration of 1 ng/ml. The cells were further cultured for 18 hours. The culture supernatant was collected, and the PGE2 concentration in the culture supernatant was measured by using EIA kit (CAYMAN). By using a well which was not added with the stimulant as a negative control and a well which was added only with the stimulant as a positive control, suppression ratios on PGE2 production were calculated from produced amounts of PGE2 in the well added with the test compound using the following equation. PGE2 production suppression ratio=[1−(C−B)/(A−B)]×100 • A: PGE2 production amount of positive control • B: PGE2 production amount of negative control • C: PGE2 production amount in well added with test compound

Structure (SMILES)	inhibition at 0.4 µM [%]
COc1cc(CCC(=O)O)cc(-c2ccc3[nH]ccc3c2)c1OC1CCCC1 [Compound 578, 3-[4-cyclopentyloxy-3-(1H-indol-5-yl)-5-methoxyphenyl]propionic acid]	≥ 50
Cc1oc(-c2ccccc2)nc1CCOc1ccc(CCC(=O)O)cc1-c1ccc2ccccc2c1 [Compound 064, 3-{4-[2-(5-methyl-2-phenyloxazol-4-yl)ethyloxy]-3-(naphthalen-2-yl)phenyl}propionic acid]	≥ 50
Cc1cc(CCC(=O)O)cc(-c2ccc3[nH]ccc3c2)c1OC1CCCC1 [Compound 571, 3-[4-cyclopentyloxy-3-(1H-indol-5-yl)-5-methylphenyl]propionic acid]	≥ 50
CCCOc1ccc(CCC(=O)O)cc1-c1ccc2[nH]ccc2c1 [Compound 588, 3-[4-n-propyloxy-3-(1H-indol-5-yl)phenyl]propionic acid]	≥ 50
CC(C)n1ccc2cc(-c3cc(CCC(=O)O)ccc3OCC3CCCC3)ccc21 [Compound 238, 3-[4-cyclopentylmethyloxy-3-(1-isopropyl-1H-indol-5-yl)phenyl]propionic acid]	≥ 50
O=C(O)CCc1ccc(OCC2CCCC2)c(-c2cnc3ccccc3c2)c1 [Compound 315, 3-[4-cyclopentylmethyloxy-3-(quinolin-3-yl)phenyl]propionic acid]	≥ 50
CC(=O)Nc1ccc2cc(-c3cc(CCC(=O)O)ccc3OCC3CCCC3)ccc2c1 [Compound 077, 3-[3-(6-acetylaminonaphthalen-2-yl)-4-cyclopentylmethyloxy-phenyl]propionic acid]	≥ 50
COc1ccc2cc(-c3cc(CCC(=O)O)ccc3OCC3CCCCC3)ccc2c1 [Compound 068, 3-[4-cyclohexylmethyloxy-3-(6-methoxynaphthalen-2-yl)phenyl]propionic acid]	≥ 50
Cc1ccc(COc2ccc(CCC(=O)O)cc2-c2ccc3[nH]ccc3c2)cc1 [Compound 138, 3-[3-(1H-indol-5-yl)-4-(4-methylphenylmethyloxy)phenyl]propionic acid]	≥ 50
O=C(O)CCc1ccc(OCc2cccc(F)c2)c(-c2ccc3[nH]ccc3c2)c1 [Compound 144, 3-[4-(3-fluorophenylmethyloxy)-3-(1H-indol-5-yl)phenyl]propionic acid]	≥ 50
O=C(O)CCc1ccc(OCC2CCCCC2)c(-c2ccc3cc(OCC(=O)O)ccc3c2)c1 [Compound 072, 3-[3-(6-carboxymethyloxynaphthalen-2-yl)-4-cyclohexylmethyloxyphenyl]propionic acid]	≥ 50
O=C(O)CCc1ccc(OCc2ccoc2)c(-c2ccc3[nH]ccc3c2)c1 [Compound 196, 3-{4-[(furan-3-yl)methyloxy]-3-(1H-indol-5-yl)phenyl}propionic acid]	≥ 50
COc1cc(CCC(=O)O)cc(-c2ccc3c(ccn3C)c2)c1OC1CCCC1 [Compound 580, 3-[4-cyclopentyloxy-3-methoxy-5-(1-methyl-1H-indol-5-yl)phenyl]propionic acid]	≥ 50
O=C(O)CCc1ccc(OCC2CCCC2)c(-c2ccc3occc3c2)c1 [Compound 277, 3-[3-(benzo[b]furan-5-yl)-4-cyclopentylmethyloxyphenyl]propionic acid]	≥ 50
Cn1c(=O)sc2cc(-c3cc(CCC(=O)O)ccc3OCC3CCCC3)ccc21 [Compound 313, 3-[4-cyclopentylmethyloxy-3-(2-oxo-3-methyl-2,3-dihydrobenzothiazol-6-yl)phenyl]propionic acid]	≥ 50
O=C(O)CCc1ccc(OCC2CCCC2)c(-c2ccc3c(ccn3C3CCCC3)c2)c1 [Compound 242, 3-[3-(1-cyclopentyl-1H-indol-5-yl)-4-cyclopentylmethyloxyphenyl]propionic acid]	≥ 50
Cc1cn(C)c2ccc(-c3cc(CCC(=O)O)ccc3OCC3CCCC3)cc12 [Compound 252, 3-[4-cyclopentylmethyloxy-3-(1,3-dimethyl-1H-indol-5-yl)phenyl]propionic acid]	≥ 50
CS(=O)(=O)Nc1ccc2cc(-c3cc(CCC(=O)O)ccc3OCC3CCCC3)ccc2c1 [Compound 085, 3-[4-cyclopentylmethyloxy-3-(6-methanesulfonylaminonaphthalen-2-yl)phenyl]propionic acid]	≥ 50
CCn1ccc2cc(-c3cc(CCC(=O)O)cc(OC)c3OC3CCCC3)ccc21 [Compound 582, 3-[4-cyclopentyloxy-3-(1-ethyl-1H-indol-5-yl)-5-methoxyphenyl]propionic acid]	≥ 50
CNc1nc2ccc(-c3cc(CCC(=O)O)ccc3OCC3CCCC3)cc2s1 [Compound 297, 3-[4-cyclopentylmethyloxy-3-(2-methylaminobenzothiazol-6-yl)phenyl]propionic acid]	≥ 50
Nc1nc2cc(-c3cc(CCC(=O)O)ccc3OCC3CCCC3)ccc2s1 [Compound 285, 3-[3-(2-aminobenzothiazol-5-yl)-4-cyclopentylmethyloxyphenyl]propionic acid]	≥ 50
CN=c1sc2cc(-c3cc(CCC(=O)O)ccc3OCC3CCCC3)ccc2n1C [Compound 305, 3-{4-cyclopentylmethyloxy-3-[3-methyl-2-(methylimino)-2,3-dihydrobenzothiazol-6-yl]phenyl}propionic acid]	≥ 50
Cc1ccccc1COc1ccc(CCC(=O)O)cc1-c1ccc2[nH]ccc2c1 [Compound 134, 3-[3-(1H-indol-5-yl)-4-(2-methylphenylmethyloxy)phenyl]propionic acid]	≥ 50
O=C(O)CCc1ccc(OC2CCCCC2)c(-c2ccc3ncsc3c2)c1 [Compound 330, 3-[3-(benzothiazol-6-yl)-4-cyclohexyloxyphenyl]propionic acid]	≥ 50
Cn1ccc2c(-c3cc(CCC(=O)O)ccc3OC3CCCC3)cccc21 [Compound 124, 3-[4-cyclopentyloxy-3-(1-methyl-1H-indol-4-yl)phenyl]propionic acid]	≥ 50
O=C(O)CCc1ccc(OCc2cccs2)c(-c2ccc3[nH]ccc3c2)c1 [Compound 198, 3-{3-(1H-indol-5-yl)-4-[(thiophen-2-yl)methyloxy]phenyl}propionic acid]	≥ 50
O=C(O)CCc1ccc(OC2CCCCC2)c(-c2cccc3[nH]ccc23)c1 [Compound 120, 3-[4-cyclohexyloxy-3-(1H-indol-4-yl)phenyl]propionic acid]	≥ 50
CCc1ccc(CCOc2ccc(CCC(=O)O)cc2-c2ccc3ccccc3c2)nc1 [Compound 062, 3-{4-[2-(5-ethylpyridin-2-yl)ethyloxy]-3-(naphthalen-2-yl)phenyl}propionic acid]	≥ 50
O=C(O)CCc1ccc(OCC2CCCCC2)c(-c2ccc3cc(C(=O)O)ccc3c2)c1 [Compound 029, 3-[3-(6-carboxynaphthalen-2-yl)-4-cyclohexylmethyloxyphenyl]propionic acid]	≥ 50
NS(=O)(=O)Nc1ccc2cc(-c3cc(CCC(=O)O)ccc3OCC3CCCC3)ccc2c1 [Compound 020, 3-[4-cyclopentylmethyloxy-3-(6-sulfamoylaminonaphthalen-2-yl)phenyl]propionic acid]	≥ 50
